Where two headings read alike, the source gives them in different places.
Columns and labels:
[1] = tested on: HepG2 cells (human hepatic carcinoma); assay: Antiproliferative activity, 48 h treatment, ATPlite luminescence assay, HepG2; assay type: cell-based
Procedure: HepG2: maintained in EMEM medium+10% FCS.
(§1) 24 hours after seeding, an aliquot (10 μl) of the drug at the various concentrations is added (for each concentration there are 3 replicates). After 48 hours of treatment the antiproliferative effect is evaluated with a luminescence assay (Perkin Elmer Life Sciences ATPlite):
(§2) 50 μl of a lysis solution are added to each well followed by an equal volume of a solution containing luciferase and D-luciferin. The ATP present in all the metabolically active cells brings about the transformation reaction of D-luciferin, catalysed by luciferase, to produce a luminescent signal as described in the following scheme: ATP+D-luciferin+O2→Oxyluciferin+AMP+PPi+CO2+Light
(§3) The luminescence produced (expressed in counts per second, CPS) is measured by means of a microplate scintillation analyzer (Perkin Elmer Life Sciences Top Count).
(§4) Percentage inhibition of luminescence in the treated cells compared to the control is calculated; concentration-response curves are then analysed using Grafit v.5.0.

[2] = tested on: HT29 cells (human colon carcinoma); assay: Antiproliferative activity, 72 h treatment, SRB assay, HT29; assay type: cell-based; details: 72 h. treatment, read-out: Antiproliferative activity (IC50 ± S.D., μM) HT-29
[3] = target: Vacuolar ATPase (bafilomycin sensitive ATPase activity) (Homo sapiens, UniProt P27449+Q13488); assay: Vacuolar ATPase inhibition in human osteoclastoma (hOc) microsomal fraction; assay type: biochemical; details: 30 min, 37° C., read-out: v-ATPase Activity (IC50, μM) hOc
Chain of Vacuolar ATPase (bafilomycin sensitive ATPase activity) (P38606 whole entry): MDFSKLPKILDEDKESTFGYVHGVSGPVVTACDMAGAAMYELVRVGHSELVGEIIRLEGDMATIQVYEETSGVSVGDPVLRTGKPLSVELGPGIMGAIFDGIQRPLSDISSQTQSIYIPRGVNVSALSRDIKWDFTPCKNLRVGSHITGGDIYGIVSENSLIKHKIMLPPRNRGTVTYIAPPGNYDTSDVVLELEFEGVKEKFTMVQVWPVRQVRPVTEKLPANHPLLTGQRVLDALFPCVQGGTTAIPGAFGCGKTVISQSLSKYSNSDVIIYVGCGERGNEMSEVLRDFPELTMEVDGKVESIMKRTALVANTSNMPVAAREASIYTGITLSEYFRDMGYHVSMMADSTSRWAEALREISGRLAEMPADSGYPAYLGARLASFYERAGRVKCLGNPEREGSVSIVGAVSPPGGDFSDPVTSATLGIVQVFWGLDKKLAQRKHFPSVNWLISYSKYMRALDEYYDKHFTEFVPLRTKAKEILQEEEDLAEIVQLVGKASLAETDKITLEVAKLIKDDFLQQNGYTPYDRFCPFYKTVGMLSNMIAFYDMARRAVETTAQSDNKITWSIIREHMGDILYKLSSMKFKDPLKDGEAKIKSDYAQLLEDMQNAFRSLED
Chain of Vacuolar ATPase (bafilomycin sensitive ATPase activity) (Q13488 whole entry): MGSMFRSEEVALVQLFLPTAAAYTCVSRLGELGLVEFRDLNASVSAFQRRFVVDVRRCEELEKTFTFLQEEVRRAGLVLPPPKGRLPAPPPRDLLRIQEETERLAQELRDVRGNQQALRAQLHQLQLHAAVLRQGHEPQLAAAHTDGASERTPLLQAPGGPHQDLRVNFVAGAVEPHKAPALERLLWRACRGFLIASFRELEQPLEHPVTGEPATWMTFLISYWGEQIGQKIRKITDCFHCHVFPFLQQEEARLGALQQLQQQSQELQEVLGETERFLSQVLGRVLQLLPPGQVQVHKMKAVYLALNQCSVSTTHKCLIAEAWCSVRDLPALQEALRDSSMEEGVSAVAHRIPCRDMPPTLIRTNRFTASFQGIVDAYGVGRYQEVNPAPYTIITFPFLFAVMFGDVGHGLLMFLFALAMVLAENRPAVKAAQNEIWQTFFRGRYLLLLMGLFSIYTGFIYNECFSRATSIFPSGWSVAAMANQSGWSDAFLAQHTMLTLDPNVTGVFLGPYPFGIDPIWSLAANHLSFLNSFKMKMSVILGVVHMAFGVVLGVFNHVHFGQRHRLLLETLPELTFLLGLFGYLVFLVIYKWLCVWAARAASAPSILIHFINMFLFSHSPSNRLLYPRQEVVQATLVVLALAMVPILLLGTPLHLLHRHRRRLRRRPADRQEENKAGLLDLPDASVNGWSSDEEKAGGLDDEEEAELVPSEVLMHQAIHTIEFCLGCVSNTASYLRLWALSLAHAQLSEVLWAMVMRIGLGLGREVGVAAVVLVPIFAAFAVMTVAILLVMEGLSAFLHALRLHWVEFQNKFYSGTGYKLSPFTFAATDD
Chain of Vacuolar ATPase (bafilomycin sensitive ATPase activity) (P27449 whole entry): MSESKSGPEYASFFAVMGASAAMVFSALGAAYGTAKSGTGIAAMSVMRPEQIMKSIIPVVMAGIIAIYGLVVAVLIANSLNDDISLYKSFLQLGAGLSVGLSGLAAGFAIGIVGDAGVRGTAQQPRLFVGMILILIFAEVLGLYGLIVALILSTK
Procedure: 1.1 Determination of Vacuolar ATPase Inhibition in Human Osteoclastoma (hOc)
Osteoclast-like giant cells isolated from human osteoclastoma are homogenized using a glass-teflon homogeniser (1000 rpm) and the material is centrifuged for 20 minutes at 6000 g. The resultant pellet is resuspended and centrifuged at 100000 g for 60 minutes to sediment the microsomal fraction. The resultant pellet is resuspended in medium at pH 7.4 and stored under liquid nitrogen.
Inhibition of bafilomycin sensitive ATPase activity is assayed by measuring the release of inorganic phosphate during 30 minutes of incubation, at 37° C., of the human osteoclastoma microsomal fraction in 96-well plates. The reaction medium contains 1 mM ATP, 10 mM Hepes-Tris buffer pH 8, 50 mM KCl, 5 μM valinomycin, 5 μM nigericin, 1 mM CDTA-Tris, 100 μM ammonium molybdate, 0.2 M sucrose and the microsomal fraction ([…] protein/ml). The reaction is initiated by adding MgSO4 and terminated, after 30 minutes, by adding 4 volumes of the reagent malachite green, prepared according to Chan K., Anal. Biochem. 157, 375-380, 1986.

[4] = tested on: HT29/Mit cells (mitoxantrone-resistant human colon carcinoma, BCRP overexpression); assay: Antiproliferative activity, 72 h treatment, SRB assay, HT29/Mit; details: read-out: Antiproliferative activity (IC50 ± S.D., μM) HT-29/Mit
Procedure: HT29 and HT29/Mit (line obtained by prolonged exposure to mitoxantrone, and characterised by overerexpression of BCRP, which confers cross resistance to topotecan, irinotecan and to its metabolite SN38): maintained in McCoy 5A medium+10% FCS.
(§5) The cells (HT29 and HT29/Mit:. 40,000 cells/ml, LoVo, LoVo/Dx and HCT116: 50,000 cells/ml) are seeded in 100 μl of the respective culture media in 96-well plates. 24 hours after seeding, an aliquot (10 μl) of drug at the various concentrations is added. In the samples in which the effect of the combination of two compounds is to be tested the inhibitor is added immediately before the cytotoxic. For each dose or combination of doses/drugs the effect of the treatment is determined in 4-8 replicates.
(§6) After 72 hours of treatment the antiproliferative effect is evaluated using the sulforhodamine B (SRB) assay: the cells are fixed by adding 25 μl of 50% TCA to each well and left for 1 hour at 4° C. After washing them with water and allowing them to dry, 100 μl of 0.4% SRB in 1% acetic acid are added and left for 30 minutes at room temperature. After 4 washes in 1% acetic acid, they are left to dry, then the dye fixed by the proteins is dissolved under basic conditions with 100 μl 10 mM cold Tris and the solution is read using a spectrophotometer at 550 nm.
(§7) Percentage cell growth is calculated as the optical density of treated samples compared to the optical density of controls (untreated cells).
(§8) The Combination Index (C.I.) was determined according to Kern's method, 1988 (who continued from Drewinko B, 1976) (Kern D. H., Cancer Res. 48, 117-121, 1988; Drewinko B., Cancer Biochem. Biophys. 1, 187-195, 1976) by means of the following formula: […], where SFa and SFb are the fractions of cells surviving to treatment with compound a and b, respectively; SFab is the fraction surviving to the combination of compounds a and b.

[5] = tested on: HCT116 cells (human colon carcinoma); assay: Antiproliferative activity, 72 h treatment, SRB assay, HCT116; assay type: cell-based; details: 72 h. treatment; read-out: Antiproliferative activity (IC50 ± S.D., μM) HCT116
Procedure: HCT116 maintained in RPMI 1640 medium+10% FCS.
as §5, §6, §7, §8

[6] = tested on: LoVo/Dx cells (doxorubicin-resistant human colon carcinoma, P-glycoprotein overexpression); assay: Antiproliferative activity, 72 h treatment, SRB assay, LoVo/Dx; assay type: cell-based; details: 72 h. treatment; read-out: Antiproliferative activity (IC50 ± S.D., μM) LoVo/Dx
From the text: (§9) LoVo and LoVo/Dx (line obtained by prolonged exposure to doxorubicin and characterised by overerexpression of P-glycoprotein, which confers resistance to doxorubicin): maintained in HAM-F12 medium+10% FCS.

[7] = tested on: SH-SY5Y cells (human neuroblastoma); assay: Antiproliferative activity, 48 h treatment, ATPlite luminescence assay, SH-SY5Y; assay type: cell-based; details: 48 h. treatment; read-out: Antiproliferative activity (IC50 ± S.D., μM) SHSY-5Y
Procedure: (§10) SH-SY5Y and SK-N-BE(2): maintained in HAM-F12 medium+10% FCS.
as §1, §2, §3, §4

[8] = tested on: LoVo cells (human colon carcinoma); assay: Antiproliferative activity, 72 h treatment, SRB assay, LoVo; assay type: cell-based; details: 72 h. treatment; read-out: Antiproliferative activity (IC50 ± S.D., μM) LoVo
From the text: as §9

[9] = tested on: SK-N-BE(2) cells (human neuroblastoma); assay: Antiproliferative activity, 48 h treatment, ATPlite luminescence assay, SK-N-BE(2); assay type: cell-based; details: 48 h. treatment; read-out: Antiproliferative activity (IC50 ± S.D., μM) SK-N-BE(2)
Procedure: as §10, §1, §2, §3, §4

[10] = tested on: A2780 cells (human ovarian carcinoma); assay: Antiproliferative activity, 48 h treatment, ATPlite luminescence assay, A2780; assay type: cell-based; details: 48 h. treatment; read-out: Antiproliferative activity (IC50 ± S.D., μM) A2780
Procedure: as §1, §2, §3, §4

[11] = read-out: Antiproliferative activity (IC50 ± S.D., μM) HepG2
[12] = Homo sapiens, HepG2, read-out: Antiproliferative activity (IC50 ± S.D., μM) HepG2

IC50 [1, 12]	IC50 ([2]; Homo sapiens, HT-29)	Compound	IC50 [1, 11]	IC50 [2]	IC50 ([4]; Homo sapiens, HT-29, 72 h)	other results
–	–	CO/C1=C\C(C)=C\[C@@H](C)[C@@H](O)[C@@H](C)C/C(C)=C/C=C/[C@H](OC)[C@@H]([C@@H](C)[C@@H](O)[C@H](C)[C@@]2(O)C[C@@H](O)[C@H](C)[C@@H](C(C)C)O2)OC1=O [Bafilomycin A1, reference compound]	< 0.006 µM	0.003 ± 0.002 µM	–	IC50 [3]: 0.0001 µM; IC50 ([4]; 72 h. treatment): 0.005 µM
–	–	N.N.[Cl][Pt][Cl] [Cisplatin, reference compound]	> 25 µM	6.8 µM	–	IC50 [5]: 5.4 µM; IC50 [6]: 0.8 µM; IC50 [7]: 7.3 ± 3.3 µM; IC50 [8]: 0.7 µM; IC50 [9]: 10.1 ± 3.5 µM; IC50 [10]: 8.1 ± 2.1 µM
1.1 ± 0.1 µM	3.3 ± 0.4 µM	CO/C(=C\C=C\c1cc2cc(Cl)c(Cl)cc2[nH]1)C(=O)NC1CC(C)(C)N(C)C(C)(C)C1 [Example 1]	–	–	1 µM	–
0.71 ± 0.01 µM	0.56 ± 0.26 µM	CCOc1cc(C(=O)NC2CC(C)(C)NC(C)(C)C2)ccc1-c1nc2cc(Cl)c(Cl)cc2[nH]1 [Example 3]	–	–	0.27 µM	–

Source: patent US20070299084A1, “Indole Derivatives Useful for Treating Resistance to Antitumor Agents” (NIKEM RESE S.R.L., priority 2004, published 2007)
